# Earlier results in patent US4632934A, “Imidazole derivatives and pharmaceutical use thereof” (Kissei Pharmaceutical Co., Ltd., priority 1978, dated 1986).
# Tested on: thromboxane synthetase
# Conditions: prior art literature
row,Compound,inhibitory effect on thromboxane synthetase (in words)
1,CCCCCCCCCCn1ccnc1 [1-decylimidazole],strong inhibitory effect
2,c1ccc(Cn2ccnc2)cc1 [1-benzylimidazole],strong inhibitory effect
3,c1c[nH]cn1 [imidazole],very weak inhibitory effect
4,CC(C)c1ccccc1-n1ccnc1 [1-(2-isopropylphenyl)imidazole],strong inhibitory effect
5,CCCCCCCCCn1ccnc1 [1-nonylimidazole],strong inhibitory effect
